How the values were obtained:
cocklebur = assay: Test B pre/postemergence cocklebur; assay type: in vivo, Xanthium strumarium
Summary of the method: (§1)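 Response is a visual 0-to-10 score relative to untreated plants, where 0 means no effect and 10 means complete control, taken twelve to sixteen days after application. Treatments went onto soil at planting and onto foliage of 1- to 4-leaf plants, using a surfactant-containing non-phytotoxic solvent.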

morningglory = assay: Test B pre/postemergence morningglory; assay type: in vivo, Ipomoea hederacea; details: for Morningglory plant response rating: Postemergence; for Plant response rating, Morningglory: Preemergence
Summary of the method: as §1

blackgrass = assay: Test B pre/postemergence blackgrass; assay type: in vivo, Alopecurus myosuroides
Summary of the method: as §1

sugar beet = assay: Test B pre/postemergence sugar beet; assay type: in vivo, Beta vulgaris
Summary of the method: as §1

pigweed = assay: Test B pre/postemergence pigweed; assay type: in vivo, Amaranthus retroflexus
Summary of the method: as §1

rape = assay: Test B pre/postemergence rape; assay type: in vivo, Brassica napus
Summary of the method: as §1

purple nutsedge = assay: Test B pre/postemergence purple nutsedge; assay type: in vivo, Cyperus rotundus
Summary of the method: as §1

surinam grass = assay: Test B pre/postemergence surinam grass; assay type: in vivo, Brachiaria decumbens
Summary of the method: as §1

soybean = assay: Test B pre/postemergence soybean; assay type: in vivo, Glycine max
Summary of the method: as §1

bedstraw = assay: Test B pre/postemergence bedstraw; assay type: in vivo, Galium aparine
Summary of the method: as §1

velvetleaf = assay: Test B pre/postemergence velvetleaf; assay type: in vivo, Abutilon theophrasti
Summary of the method: as §1

corn = assay: Test B pre/postemergence corn; assay type: in vivo, Zea mays; details: for Corn plant response rating: Postemergence; for Plant response rating, Corn: Preemergence
Summary of the method: as §1

bamyardgrass = assay: Test B flood test barnyardgrass; assay type: in vivo, Echinochloa crus-galli
Summary of the method: (§2)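 Each value is a visual injury score relative to controls, with 10 meaning complete control and 0 no effect. Evaluation took place twelve to sixteen days after the 2-leaf-stage plants were treated and kept in the greenhouse.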

duck salad = assay: Test B flood test duck salad; assay type: in vivo, Heteranthera limosa
Summary of the method: as §2

smallflower flatsedge = assay: Test B flood test smallflower flatsedge; assay type: in vivo, Cyperus difformis
Summary of the method: as §2

giant foxtail = assay: Test B pre/postemergence giant foxtail; assay type: in vivo, Setaria faberii
Summary of the method: as §1

[1] = Postemergence, Rate 62 g/ha, scale 0 to 10, 0 is no effect, 10 is complete control
[2] = Postemergence, Rate 250 g/ha, scale 0 to 10, 0 no effect, 10 complete control
[3] = Preemergence, Rate 62 g/ha, scale 0 to 10, 0 is no effect, 10 is complete control
[4] = Preemergence, Rate 125 g/ha, scale 0 to 10 (0 no effect, 10 complete control)
[5] = Preemergence, Rate 250 g/ha, scale of 0 to 10 where 0 is no effect and 10 is complete control
[6] = Preemergence, Rate 500 g/ha, scale 0 (no effect) to 10 (complete control)
[7] = Rate 125 g/ha, Postemergence, scale 0 to 10, 0 no effect, 10 complete control
[8] = Rate 500 g/ha, Postemergence, scale 0 to 10, 0 no effect, 10 complete control
[9] = Rate 62 g/ha, scale 0 to 10, 0 is no effect, 10 is complete control
[10] = Rate 250 g/ha, scale 0 to 10, 0 no effect, 10 complete control
[11] = Rate 125 g/ha, scale 0 to 10 (0 no effect, 10 complete control)
[12] = Rate 250 g/ha, scale of 0 to 10 where 0 is no effect and 10 is complete control
[13] = Rate 125 g/ha, scale 0 to 10, 0 no effect, 10 complete control
[14] = Rate 500 g/ha, scale 0 to 10, 0 no effect, 10 complete control
[15] = Rate 125 g/ha, Postemergence section (flood test species), scale 0 to 10, 0 no effect, 10 complete control
[16] = Rate 500 g/ha, listed under Postemergence (flood test species), scale 0 to 10, 0 no effect, 10 complete control
[17] = flood test, listed under Postemergence, Rate 250 g/ha, scale 0 to 10, 0 no effect, 10 complete control

Cc1cccc(Cl)c1-n1c(=O)on(C(=O)N(c2ccc(Cl)cc2)C(C)C)c1=O [Compound 54]
Cocklebur plant response rating (cocklebur; [1]): 0 | Cocklebur plant response rating (cocklebur; [2]): 0 | Plant response rating, Cocklebur (cocklebur; [3]): 0 | Plant response rating, Cocklebur (cocklebur; [4]): 0 | Plant response rating, Cocklebur (cocklebur; [5]): 0 | Cocklebur plant response rating (cocklebur; [6]): — 0 0 0 0 | Cocklebur plant response rating (cocklebur; [7]): 0 | Cocklebur plant response rating (cocklebur; [8]): 2 | Morningglory plant response rating (morningglory; [9]): 0 | Morningglory plant response rating (morningglory; [10]): 2 | Plant response rating, Morningglory (morningglory; [9]): 0 | Plant response rating, Morningglory (morningglory; [11]): 0 | Plant response rating, Morningglory (morningglory; [12]): 0 | Morningglory plant response rating (morningglory; [13]): 0 | Morningglory plant response rating (morningglory; [14]): 2 | Blackgrass plant response rating (blackgrass; [1]): 0 | Blackgrass plant response rating (blackgrass; [2]): 0 | Plant response rating, Blackgrass (blackgrass; [3]): 0 | Plant response rating, Blackgrass (blackgrass; [4]): 0 | Plant response rating, Blackgrass (blackgrass; [5]): 0 | Blackgrass plant response rating (blackgrass; [6]): 2 | Blackgrass plant response rating (blackgrass; [7]): 0 | Blackgrass plant response rating (blackgrass; [8]): 2 | Sugarbeets plant response rating (sugar beet; [1]): 0 | Sugarbeets plant response rating (sugar beet; [2]): 0 | Plant response rating, Sugarbeets (sugar beet; [3]): 0 | Plant response rating, Sugarbeets (sugar beet; [4]): 0 | Plant response rating, Sugarbeets (sugar beet; [5]): 0 | Sugarbeets plant response rating (sugar beet; [6]): 0 | Sugarbeets plant response rating (sugar beet; [7]): 0 | Sugarbeets plant response rating (sugar beet; [8]): 0 | Redroot pigweed plant response rating (pigweed; [1]): 0 | Redroot pigweed plant response rating (pigweed; [2]): 2 | Plant response rating, Redroot pigweed (pigweed; [3]): 0 | Plant response rating, Redroot pigweed (pigweed; [4]): 0 | Plant response rating, Redroot pigweed (pigweed; [5]): 0 | Redroot pigweed plant response rating (pigweed; [6]): 0 | Redroot pigweed plant response rating (pigweed; [7]): 0 | Redroot pigweed plant response rating (pigweed; [8]): 4 | Rape plant response rating (rape; [1]): 0 | Rape plant response rating (rape; [2]): 0 | Plant response rating, Rape (rape; [3]): 0 | Plant response rating, Rape (rape; [4]): 0 | Plant response rating, Rape (rape; [5]): 0 | Rape plant response rating (rape; [6]): 0 | Rape plant response rating (rape; [7]): 0 | Rape plant response rating (rape; [8]): 0 | Nutsedge plant response rating (purple nutsedge; [1]): 0 | Nutsedge plant response rating (purple nutsedge; [2]): 0 | Plant response rating, Nutsedge (purple nutsedge; [3]): 0 | Plant response rating, Nutsedge (purple nutsedge; [4]): 0 | Plant response rating, Nutsedge (purple nutsedge; [5]): 0 | Nutsedge plant response rating (purple nutsedge; [6]): 0 | Nutsedge plant response rating (purple nutsedge; [7]): 0 | Nutsedge plant response rating (purple nutsedge; [8]): 0 | B. signalgrass plant response rating (surinam grass; [1]): 0 | B. signalgrass plant response rating (surinam grass; [2]): 0 | Plant response rating, B. signalgrass (surinam grass; [3]): 0 | Plant response rating, B. signalgrass (surinam grass; [4]): 0 | Plant response rating, B. signalgrass (surinam grass; [5]): 0 | B. signalgrass plant response rating (surinam grass; [6]): 2 | B. signalgrass plant response rating (surinam grass; [7]): 0 | B. signalgrass plant response rating (surinam grass; Rate 500 g/ha, Postemergence, scale of 0 to 10 where 0 is no effect and 10 is complete control): 0 | Soybean plant response rating (soybean; [1]): 0 | Soybean plant response rating (soybean; [2]): 0 | Plant response rating, Soybean (soybean; [3]): 0 | Plant response rating, Soybean (soybean; [4]): 0 | Plant response rating, Soybean (soybean; [5]): 0 | Soybean plant response rating (soybean; [6]): 0 | Soybean plant response rating (soybean; [7]): 0 | Soybean plant response rating (soybean; [8]): 0 | Bedstraw plant response rating (bedstraw; [1]): 0 | Bedstraw plant response rating (bedstraw; [2]): 4 | Plant response rating, Bedstraw (bedstraw; [3]): 0 | Plant response rating, Bedstraw (bedstraw; [4]): 0 | Plant response rating, Bedstraw (bedstraw; [5]): 0 | Bedstraw plant response rating (bedstraw; [6]): — — 0 0 0 | Bedstraw plant response rating (bedstraw; [7]): 0 | Bedstraw plant response rating (bedstraw; [8]): 7 | Velvetleaf plant response rating (velvetleaf; [1]): 0 | Velvetleaf plant response rating (velvetleaf; [2]): 0 | Plant response rating, Velvetleaf (velvetleaf; [3]): 0 | Plant response rating, Velvetleaf (velvetleaf; [4]): 0 | Plant response rating, Velvetleaf (velvetleaf; [5]): 0 | Velvetleaf plant response rating (velvetleaf; [6]): 0 | Velvetleaf plant response rating (velvetleaf; [7]): 0 | Velvetleaf plant response rating (velvetleaf; [8]): 0 | Corn plant response rating (corn; [9]): 0 | Corn plant response rating (corn; [10]): 0 | Plant response rating, Corn (corn; [9]): 0 | Plant response rating, Corn (corn; [11]): 0 | Plant response rating, Corn (corn; [12]): 0 | Corn plant response rating (corn; [13]): 0 | Corn plant response rating (corn; [14]): 0 | Barnyardgrass plant response rating (bamyardgrass; [1]): 0 | Barnyardgrass plant response rating (bamyardgrass; [15]): 0 | Barnyardgrass plant response rating (bamyardgrass; [16]): 0 | Barnyardgrass plant response rating (bamyardgrass; [17]): 0 | Ducksalad plant response rating (duck salad; [1]): 0 | Ducksalad plant response rating (duck salad; [15]): 0 | Ducksalad plant response rating (duck salad; [16]): 0 | Ducksalad plant response rating (duck salad; [17]): 0 | S. Flatsedge plant response rating (smallflower flatsedge; [1]): 0 | S. Flatsedge plant response rating (smallflower flatsedge; [15]): 0 | S. Flatsedge plant response rating (smallflower flatsedge; [16]): 0 | S. Flatsedge plant response rating (smallflower flatsedge; [17]): 0 | Giant foxtail plant response rating (giant foxtail; [1]): 3 | Giant foxtail plant response rating (giant foxtail; [2]): 3 | Plant response rating, Giant foxtail (giant foxtail; [3]): 2 | Plant response rating, Giant foxtail (giant foxtail; [4]): 3 | Plant response rating, Giant foxtail (giant foxtail; [5]): 3 | Giant foxtail plant response rating (giant foxtail; [6]): 7 | Giant foxtail plant response rating (giant foxtail; [7]): 3 | Giant foxtail plant response rating (giant foxtail; [8]): 5

Reference: patent publication US6737383B1, “Herbicidal oxadiazolidines” (priority 1999, dated 2004)
